Assay results from patent US20170258943A1, “Using Heavy Water as a Contrast Agent for Hydrogen Magnetic Resonance Imaging” (National Tsing Hua University, priority 2014, published 2017).

Assays:
[1] = T1 and T2 relaxation rates of H in D2O concentration phantom; type: physicochemical; conditions: FIG. 1A
Experimental: The R1 and R2 in the vertical axis are the relaxation rates of T1 and T2 relaxation, respectively.
In an experimental phantom with D2O concentration as c, respective concentrations of H2O, HDO, and D2O are (1-c)^2, 2c(1-c), and c^2, where a part of c of H is replaced by D. Population ratio of H coupled H and D coupled H is calculated as (1-c):c. The observed T1 and T2 relaxation rates are the population weighted sums of all H. Since the D coupled H has slower relaxation rates than H coupled H, we observe linear relations of R1 and R2 as changing the D2O concentration c in FIG. 1A and FIG. 1B.

[2] = Dynamic H MRI of rat brain after intravenous injection of contrast agent; type: in vivo, Sprague-Dawley rats; conditions: whole brain ROI, 1.5 mL D2O into tail vein (about 0.6% of body weight), 4.7 T
Experimental: Please refer to FIG. 2A and FIG. 2B, which are views showing consecutive MRI images and a curve of signal change. As shown in the figures, 6 normal adult Sprague-Dawley rats (˜200-310 g) are used. Each rat is anesthetized with 1.5% isoflurane/air via a nose cone with respiratory monitoring. Tail vein catheterization is performed with a 0.8-m long polyethylene tube connected to a 23-gaude needle, where a dead volume in a catheter is about 0.2 ml. On operating, 1.5 mL of D2O (99.8%, Cambridge Isotope, Woburn, Mass.) is manually injected into tail vein. After injecting, the catheter is flushed with 0.5 mL 0.9% NaCl solution. For comparison, an additional 0.2 mL Gd-DTPA (Magnevist) is manually injected into tail vein while D2O scanning is completed after 10 min. After injection, the catheter is flushed with 0.5 mL 0.9% NaCl solution. In vivo brain imaging is performed in prone position. All images are acquired on a 4.7 animal MRI scanner (Bruker Biospec 47/40). The parameters for the dynamic images are as follow: TR/TE/θ=1000 ms/30 ms/90 degree, FOV=2.9 cm, matrix size=128×128, and slice thickness=1 mm. Averaged signals from whole brain are portrayed as a signal-intensity curve. For comparison, the signal-intensity curve is transferred into a percentage change curve according to the following formula: Therein, S(t) is a signal at time t and S0 is a signal before using the contrast agent. […]

[3] = amount of injected D2O less than 20% of body weight; cited from earlier work
[4] = patients having kidney diseases; cited from earlier work

| SMILES | T1 relaxation rate (R1) of H versus D2O concentration [1] | signal change [2] | toxicity to animals [3] | nephrogenic systemic fibrosis (NSF) [4] |
| --- | --- | --- | --- | --- |
| [2H]O[2H] [D2O, deuterium oxide] | linearly decreased | 10% | not toxic | – |
| O=C([O-])CN(CCN(CC(=O)[O-])CC(=O)O)CCN(CC(=O)[O-])CC(=O)O.[Gd+3] [Gd-DTPA] | – | – | – | possible to cause nephrogenic systemic fibrosis (NSF) |
